# From patent US20080200405A1, “Drug Resistance Reversal In Neoplastic Disease” (priority 2007, published 2008)
# Marks after values point to notes of the source that are not given here.
# Key:
# Lipid peroxidation = Lipid peroxidation inhibition (method of Ohkawa); format: biochemical; details: for Lipid Peroxidation Inhibition, % Inhibition: 10 uM
# Angiogenesis in CAM = experiment: Neovascularization on the CAM (Inhibition of Angiogenesis in CAM); format: in vivo, chicken; details: 30 ug; for inhibition in vivo at 0.03 mg: Gallus gallus
# Method: In vivo neovascularization was examined by the method previously described by Auerbach et al. (J. Dev. Biol. 41:391-394 (1974)). Ten-day old chicken embryos were purchased from Spafas, Inc. (Preston, Conn.) and were incubated at 37° C. with 55% relative humidity. In the dark, with the aid of a candling lamp, a small hole was punctured in the shell concealing the air sac with a hypodermic needle. A second hole was punctured in the shell on the broadside of the egg directly over an […] portion of the embryonic membrane, as observed during candling. An artificial air sac was created beneath the second hole by applying gentle vacuum to the first hole using a small rubber squeeze bulb. The vacuum caused the chorioallantoic membrane (CAM) to separate from the shell. A window, approximately 1.0 cm^2, was cut in the shell over the dropped CAM with the use of a small crafts grinding wheel (Dremel, Division of Emerson Electric Company Racine, Wis.). The window allowed direct access to the underlying CAM. A pro-angiogenic agent was added to induce new blood vessel branches on the CAM of 10-day old embryos. […] Louis, Mo.) in a solution (95% ethanol and water). The disks were subsequently air dried under sterile conditions. The disks were then suspended in PBS (Phosphate Buffered Saline) and placed on growing CAMs. […] For inducing angiogenesis, sterile filter disks were saturated with bFGF (1 μg/ml) (Life Technologies, Gaithersburg, Md.) or other pro-angiogenesis factors and control disks were saturated with PBS without Calcium and Magnesium. Control disks were saturated with PBS without Calcium and Magnesium. Using sterile forceps one filter/CAM was placed from the window. The window was sealed with Highland brand transparent tape. After 24-48 hr, 10-25 ul of test agent was injected intravenously or added topically into the CAM membrane. Eight-Ten eggs/treatment group were used. CAM tissue directly beneath filter disk was harvested from embryos treated 48 hours prior with compound or control. Tissues were washed three times with PBS. Sections were placed in a 35-mm petri dish (Nalge Nunc, Rochester, N.Y.) and examined under a SV6 stereomicroscope (Karl Zeiss, Thornwood, N.Y.) at 50× magnification. […] Digital images of CAM sections from Petri dish were collected using a 3-CCD color video camera system (Toshiba America, New York, N.Y.). These images were analyzed using Image-Pro Plus software (Media Cybernetics, Silver Spring, Md.). The number of branch points in blood vessels within the circular region superimposed to the area of a filter disk was counted for each section. […] Tissues were washed three times with PBS. Sections were placed in a 35-mm Petri dish (Nalge Nunc; Rochester, N.Y.) and were examined under a SV6 stereomicroscope (Karl Zeiss; Thornwood, N.Y.) at 50× magnification. Digital images of CAM sections adjacent to filters were collected using a 3-CCD color video camera system (Toshiba America; New York, N.Y.) and analyzed with the Image-Pro Plus software (Media Cybernetics; Silver Spring, Md.). The number of vessel branch points contained in a circular region equal to the area of a filter disk was counted for each section. Percent inhibition data are expressed as the quotient of the experimental value minus the negative control value divided by the difference between the positive control value and the negative control value. One image was counted in each CAM preparation, and findings from eight CAM preparations were analyzed for each treatment condition. In addition, each experiment was performed three times. The resulting angiogenesis index is the mean ±SEM (Standard Error of Measurement) of new branch points in each set of treatment. Statistical analysis of blood vessel branching patterns are performed by 1-way analysis of variance (ANOVA) comparing experimental with corresponding control groups.
# TNFα = experiment: Measurement of LPS Induced-TNFα in THP-1 Cells; format: cell-based, human; details: Homo sapiens, THP-1
# [1] = system: Doxorubicin resistant SaOS2 cells; experiment: Cancer cell viability (MTT) in the presence or absence of doxorubicin; format: cell-based, human; details: compound 50 ug/mL, 3 days
# [2] = system: Human whole blood clot formation
# Method: TEG: Human whole blood (±drugs) was added to the cylindrical cuvette (“cup”). […] The cup oscillates 4°45′ ( 1/12 radian) in either direction every 4.5 seconds, with a 1-second mid-cycle stationary period, resulting in a frequency of 0.1 Hz and a maximal shear rate of 0.1 per second. The pin was suspended by a torsion wire that acts as a torque transducer. […] The torque experienced by the pin (relative to the oscillation of the cup) was plotted as a function of time (Forsythe, S. A. M. S. K. M. S. (2000): “Comparative In Vitro Efficacy of Different Platelet Glycoprotein IIb/IIIa Antagonists on Platelet-Mediated Clot Strength Induced by Tissue Factor With Use of Thromboelastography.” Arteriosclerosis, Thrombosis, and Vascular Biology 20: 1162).
# (Data represent mean ±SD, n=6 (blood form normal healthy volunteers), *P<0.01 as compared to control)
# [3] = system: angiogenesis in the CAM model; experiment: Effect of TEMPOL-H on the anti-angiogenesis efficacy of ranibizumab in the CAM model; format: in vivo, chicken; details: for Mean % Inhibition +/− SEM, With TEMPOL-H (30 ug): P < 0.01; for Mean % Inhibition +/− SEM, Without TEMPOL-H: n = 6-8
# Method: FIGS. 3A and 3B depict the effect of TEMPOL-H (OT-674) on the anti-angiogenesis efficacy of ranibizumab (LUCENTIS™) in the CAM model. FIG. 3A depicts 30 ug of TEMPOL-H and 1 ng of ranibizumab. FIG. […]
# Ranibizumab (Genentech, South San Francisco, Calif.) is a monoclonal antibody fragment that binds to VEGF-A. It is anti-angiogenic and is approved to treat the wet type of age-related macular degeneration. The effect of the co-administration of TEMPOL-H (also referred to as OT-674) with Ranibizumab is depicted in Table 9. This effect is also depicted in FIGS. 3A and 3B.
# [4] = TEG, human whole blood, Ranibizumab 1 ng/cup, Comp. 4 0 uM, *P<0.01 vs control
compound,measurement,setting,value
"COc1cc2c(cc1O)CC[C@@H]1[C@@H]2CC[C@]2(C)[C@@H](O)CC[C@@H]12 [2-methoxyestradiol, reference compound]","Lipid Peroxidation Inhibition, % Inhibition",Lipid peroxidation,92.3%
same,"Inhibition of Angiogenesis in CAM, % Inhibition",Angiogenesis in CAM,92.3%
"CC1(C)c2ccc(C(=O)O)cc2C(C)(C)N1O.Cl [Compound 15, 1,1,3,3-tetramethylisoindolin-2-hydroxyl-5-carboxylic acid hydrogen chloride]",% Lipid Peroxidation inhibition (at 1 uM),Lipid peroxidation; 1 uM,88.0%
same,"Lipid Peroxidation Inhibition, % Inhibition",Lipid peroxidation,94.6%
same,inhibition at 10 µM,"TNFα; compound 10 uM, 5 ng/mL LPS, read-out: Mean Percent Inhibition of TNF-alpha using 5 ng/mL LPS",67 ± 7%
same,melting point,,225.5 °C (dec.)
same,inhibition in vivo at 0.03 mg,Angiogenesis in CAM,94.6%
"CC1(C)COCC(C)(C)N1O.Cl [Compound 20, 3,3,5,5-1-hydroxy-tetramethylmorpholine hydrogen chloride]","Lipid Peroxidation Inhibition, % Inhibition",Lipid peroxidation,90.2%
same,"Mean OD (×10^−3), MTT viability",[1]; Dox. 10^−6 M (+),107.5 ×10^−3
same,"Mean OD (×10^−3), MTT viability",[1]; absence of Dox. (−),515.50 ×10^−3
same,IC50,TNFα; read-out: TNFalpha IC50,≥ 100 µM
same,melting point,,184.6 °C (dec.)
same,inhibition in vivo at 0.03 mg,Angiogenesis in CAM,90.2%
Ranibizumab: a monoclonal antibody fragment that binds to VEGF-A,MA in comparison to native blood,[2],approximately six times larger MA
same,initiation of clot formation in comparison to native blood,[2],approximately two to three fold faster
same,Clot Strength - MA,[2]; [4],28.5 ± 3.4* mm
same,Time to Clot Initiation R,[2]; [4],6.9 ± 1.4* min
same,"Mean % Inhibition +/− SEM, With TEMPOL-H (30 ug)",[3]; VEGF + Ranibizumab (1 ug) with TEMPOL-H (30 ug),54 +/− 9* %
same,"Mean % Inhibition +/− SEM, Without TEMPOL-H",[3]; VEGF + Ranibizumab (1 ug),18 +/− 5%
same,"Mean % Inhibition +/− SEM, With TEMPOL-H (30 ug)",[3]; VEGF + Ranibizumab (10 ug) with TEMPOL-H (30 ug),69 +/− 6* %
same,"Mean % Inhibition +/− SEM, Without TEMPOL-H",[3]; VEGF + Ranibizumab (10 ug),33 +/− 6%
same,"Mean % Inhibition +/− SEM, With TEMPOL-H (30 ug)",[3]; VEGF + Ranibizumab (100 ug) with TEMPOL-H (30 ug),83 +/− 4* %
same,"Mean % Inhibition +/− SEM, Without TEMPOL-H",[3]; VEGF + Ranibizumab (100 ug),53 +/− 8%
